Measured values as given in patent EP0906335B1, “EBV TYPE B CTL EPITOPES” (THE COUNCIL OF THE QUEENSLAND INSTITUTE OF MEDICAL RESEARCH, priority 1996, dated 2008).

System: HLA
Assay: not given
Settings: Table 4, from the cited reference; cited from earlier work

Substance	HLA Restriction
CLGGLLTMV	HLA A2
RPPIFIRRL	HLA B7
RYSIFFDY	HLA 24
QPRAPIRPI	HLA B7
EENLLDFVRF	HLA B44
LPGPQVTAVLLHEES	HLA A11
SVRDRLARL	HLA A2
VEITPYKPTW	HLA B44
RRRWRRLTV	HLA B27
RLRAEAGVK	HLA A3
FLRGRAYGL	HLA B8
KEHVIQNAF	HLA B44
TVFYNIPPNIPL	HLA DQ2
TSLYNLRRGTALA	HLA DR1
DTPLIPLTIF	HLA B51/A2
NPTQAPVIQLVHAVY	HLA A11
VSFIEFVGW	HLA B57
DEPASTEPVHDQLL	HLA A11

System: autologous PHA-blasts
Assay: CTL assay of culture A3 against overlapping EBNA-6B peptides (epitope mapping)
Settings: peptides on autologous PHA-blasts; Fig. 4a, 4b

Substance	recognition by culture A3
peptide 19: 20-mer overlapping peptide of EBNA-6B, residues 280-299	reactive

System: autologous PHA blasts
Assay: CTL assay of type B specific culture B5 against overlapping EBNA-6B peptides (epitope mapping)
Type: cell-based
Settings: peptides preincubated with autologous PHA blasts; Fig. 3a, 3b
Procedure: Assessment of peptide specific activity.
The type B specific culture B5 recognised the peptide corresponding to EBNA-6B residues 210-229 (peptide 12 of the EBNA-6B set) when assayed against individual 20-mer overlapping peptides preincubated with autologous PHA blasts (Fig. 3a). […] The corresponding peptide from the type A overlapping sequence was not recognised by this culture, thus confirming the type B specificity of these T cells.

Substance	recognition by type B specific culture B5
peptide 12: 20-mer overlapping peptide corresponding to EBNA-6B residues 210-229	recognised
